Laboratory results reported in PubChem BioAssay AID256 (DTP/NCI, 2004).
“And” between values parts separate entries of the source, which are not always exact repeats. Identical values can stand only once. Toxic doses and inconclusive results are not listed. The calls were made as follows: active = survival T/C of 150% or more; inactive = T/C below 125% in these data.

Tested on: CD2F1 mice, L1210 leukemia ip, survival T/C
Assay: NCI In Vivo Anticancer Drug Screen. Data for tumor model L1210 Leukemia (intraperitoneal) in CD2F1 (CDF1) mice
Conditions: higher = longer survival
In short: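 In this screen, transplantable tumors were grown in mice given either the compound or its vehicle. Results were expressed as the treated measurement relative to the control measurement.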

[1] = endpoint: mean survival time, dose: 50.0 mg/kg/injection, schedule: Q01DX009 (ip), vehicle: distilled water + Tween-80
[2] = endpoint: mean survival time, dose: 100.0 mg/kg/injection, schedule: Q04DX003 (ip), vehicle: saline with Tween-80
[3] = endpoint: mean survival time, dose: 200.0 mg/kg/injection, schedule: Q04DX003 (ip), vehicle: saline with Tween-80
[4] = endpoint: mean survival time, dose: 400.0 mg/kg/injection, schedule: Q04DX003 (ip), vehicle: saline with Tween-80
[5] = endpoint: mean survival time, dose: 100.0 mg/kg/injection, schedule: Q01DX009 (ip), vehicle: saline with Tween-80
[6] = endpoint: mean survival time, dose: 200.0 mg/kg/injection, schedule: Q01DX009 (ip), vehicle: saline with Tween-80
[7] = endpoint: mean survival time, dose: 400.0 mg/kg/injection, schedule: Q01DX009 (ip), vehicle: saline with Tween-80
[8] = endpoint: mean survival time, dose: 12.5 mg/kg/injection, schedule: Q01DX009 (ip), vehicle: saline with Tween-80
[9] = endpoint: mean survival time, dose: 25.0 mg/kg/injection, schedule: Q01DX009 (ip), vehicle: saline with Tween-80
[10] = endpoint: mean survival time, dose: 50.0 mg/kg/injection, schedule: Q01DX009 (ip), vehicle: saline with Tween-80
[11] = endpoint: mean survival time, dose: 50.0 mg/kg/injection, schedule: Q01DX009 (ip), vehicle: saline
[12] = endpoint: mean survival time, dose: 100.0 mg/kg/injection, schedule: Q01DX001 (ip), vehicle: saline with Tween-80
[13] = endpoint: mean survival time, dose: 400.0 mg/kg/injection, schedule: Q01DX001 (ip), vehicle: saline with Tween-80
[14] = endpoint: mean survival time, dose: 100.0 mg/kg/injection, schedule: Q01DX009 (ip), vehicle: saline
[15] = endpoint: mean survival time, dose: 100.0 mg/kg/injection, schedule: Q04DX003 (ip), vehicle: saline
[16] = endpoint: mean survival time, dose: 200.0 mg/kg/injection, schedule: Q04DX003 (ip), vehicle: saline

Measured: T/C

CNC(=O)OCc1c(COC(=O)NC)c(-c2ccccc2)n(C)c1-c1ccccc1
inactive: endpoint: mean survival time, dose: 3.12 mg/kg/injection, schedule: Q01DX009 (ip), vehicle: distilled water + Tween-80 111 % of control | endpoint: mean survival time, dose: 6.25 mg/kg/injection, schedule: Q01DX009 (ip), vehicle: distilled water + Tween-80 111 % of control | [1] 111 % of control

Cc1ccc([N+](=O)[O-])cc1NC(=O)COc1cc(Cl)c(Cl)cc1Cl
inactive: [2] 110 % of control | [3] 90 % of control | [4] 90 % of control

COC(=O)c1ccc([N+](=O)[O-])cc1O
inactive: [5] 105 % of control | [6] 102 % of control | [7] 97 % of control

CN1C(=O)NC(c2ccc(Cl)cc2)(c2ccc(Cl)cc2)C1=O
inactive: endpoint: mean survival time, dose: 12.5 mg/kg/injection, schedule: Q01DX009 (ip), vehicle: distilled water + Tween-80 93 % of control | [8] 97 % of control | endpoint: mean survival time, dose: 25.0 mg/kg/injection, schedule: Q01DX009 (ip), vehicle: distilled water + Tween-80 95 % of control | [9] 101 % of control | [1] 103 % of control | [10] 101 % of control | endpoint: mean survival time, dose: 100.0 mg/kg/injection, schedule: Q01DX009 (ip), vehicle: distilled water + Tween-80 98 % of control | [5] 89 % of control | endpoint: mean survival time, dose: 200.0 mg/kg/injection, schedule: Q01DX009 (ip), vehicle: distilled water + Tween-80 98 % of control | [6] 91 % of control

CC(N)(C(=O)O)c1ccccc1 (configuration not stated)
inactive: endpoint: mean survival time, dose: 100.0 mg/kg/injection, schedule: Q01DX001 (ip), vehicle: other 92 % of control and 96 % of control | endpoint: mean survival time, dose: 200.0 mg/kg/injection, schedule: Q01DX001 (ip), vehicle: other 100 % of control and 102 % of control | endpoint: mean survival time, dose: 400.0 mg/kg/injection, schedule: Q01DX001 (ip), vehicle: other 96 % of control and 94 % of control

C=C(c1ccccc1)c1ccc(N(C)C)cc1
inactive: [2] 100 % of control | [3] 91 % of control | [4] 95 % of control

NC(N)=N/N=C(/c1ccccc1)c1ccc(F)cc1
inactive: [11] 101 % of control

Cn1c(=O)c2c(nc(-[n+]3ccccc3)n2C)n(C)c1=O
inactive: endpoint: mean survival time, dose: 12.5 mg/kg/injection, schedule: Q01DX005 (ip), vehicle: water 94 % of control | endpoint: mean survival time, dose: 25.0 mg/kg/injection, schedule: Q01DX005 (ip), vehicle: water 100 % of control | endpoint: mean survival time, dose: 50.0 mg/kg/injection, schedule: Q01DX005 (ip), vehicle: water 103 % of control | endpoint: mean survival time, dose: 100.0 mg/kg/injection, schedule: Q01DX005 (ip), vehicle: water 103 % of control | endpoint: mean survival time, dose: 200.0 mg/kg/injection, schedule: Q01DX005 (ip), vehicle: water 120 % of control

CC(C)(C)NCC(CN(CC(CNC(C)(C)C)C(=O)c1ccccc1)C(C)(C)C)C(=O)c1ccccc1 (configuration not stated)
inactive: endpoint: mean survival time, dose: 12.5 mg/kg/injection, schedule: Q04DX003 (ip), vehicle: Klucel (hydroxypropylcellulose) (HPC) 98 % of control | endpoint: mean survival time, dose: 25.0 mg/kg/injection, schedule: Q04DX003 (ip), vehicle: Klucel (hydroxypropylcellulose) (HPC) 96 % of control | endpoint: mean survival time, dose: 50.0 mg/kg/injection, schedule: Q04DX003 (ip), vehicle: Klucel (hydroxypropylcellulose) (HPC) 102 % of control

CC(O)C1OC(n2cnc3c(=S)nc[nH]c32)C(O)C1O (configuration not stated)
inactive: endpoint: median survival time, dose: 12.5 mg/kg/injection, schedule: Q01DX005 (ip), vehicle: distilled water + Tween-80 119 % of control and 107 % of control | endpoint: median survival time, dose: 25.0 mg/kg/injection, schedule: Q01DX005 (ip), vehicle: distilled water + Tween-80 116 % of control and 124 % of control

Cn1nnc(-c2nn[nH]n2)n1
inactive: [12] 105 % of control | [2] 106 % of control | endpoint: mean survival time, dose: 200.0 mg/kg/injection, schedule: Q01DX001 (ip), vehicle: saline with Tween-80 104 % of control | [3] 98 % of control | [13] 94 % of control | [4] 97 % of control

C=CS(=O)(=O)CCCC
inactive: endpoint: mean survival time, dose: 100.0 mg/kg/injection, schedule: Q01DX001 (ip), vehicle: Klucel (hydroxypropylcellulose) (HPC) 96 % of control | endpoint: mean survival time, dose: 200.0 mg/kg/injection, schedule: Q01DX001 (ip), vehicle: Klucel (hydroxypropylcellulose) (HPC) 96 % of control | endpoint: mean survival time, dose: 400.0 mg/kg/injection, schedule: Q01DX001 (ip), vehicle: Klucel (hydroxypropylcellulose) (HPC) 101 % of control

NC(=O)c1nc(C2OC(CO)C(O)C2O)cs1 (configuration not stated)
inactive: endpoint: median survival time, dose: 50.0 mg/kg/injection, schedule: Q01DX005 (ip), vehicle: water 100 % of control | endpoint: median survival time, dose: 100.0 mg/kg/injection, schedule: Q01DX005 (ip), vehicle: water 102 % of control | endpoint: median survival time, dose: 200.0 mg/kg/injection, schedule: Q01DX005 (ip), vehicle: water 98 % of control | endpoint: median survival time, dose: 400.0 mg/kg/injection, schedule: Q01DX005 (ip), vehicle: water 101 % of control

OC1(c2ccccc2)CN(Cc2ccccc2)CCO1 (configuration not stated)
inactive: [11] 104 % of control | endpoint: mean survival time, dose: 50.0 mg/kg/injection, schedule: Q04DX003 (ip), vehicle: saline 93 % of control | [14] 102 % of control | [15] 101 % of control | endpoint: mean survival time, dose: 200.0 mg/kg/injection, schedule: Q01DX009 (ip), vehicle: saline 98 % of control | [16] 102 % of control

O=C(O)c1cc2ccccc2cn1
inactive: [11] 108 % of control | [14] 95 % of control

CC(=O)Nc1cc(C)ccc1O
inactive: [5] 98 % of control | [2] 96 % of control | [6] 95 % of control | [3] 104 % of control | [7] 87 % of control | [4] 90 % of control

COC(=O)C12C=CC(C1)n1c(=O)n(-c3ccccc3)c(=O)n12 (configuration not stated)
inactive: [5] 98 % of control | [6] 104 % of control | [7] 96 % of control

CC1CCCCN1 (configuration not stated)
inactive: [12] 95 % of control | [13] 95 % of control

CNc1ccc(CC(=O)O)cc1
inactive: endpoint: mean survival time, dose: 100.0 mg/kg/injection, schedule: Q04DX003 (ip), vehicle: Klucel (hydroxypropylcellulose) (HPC) 92 % of control | endpoint: mean survival time, dose: 200.0 mg/kg/injection, schedule: Q04DX003 (ip), vehicle: Klucel (hydroxypropylcellulose) (HPC) 93 % of control | endpoint: mean survival time, dose: 400.0 mg/kg/injection, schedule: Q04DX003 (ip), vehicle: Klucel (hydroxypropylcellulose) (HPC) 96 % of control

C/C(=N/NC(N)=S)c1ccc2ccccc2c1
inactive: endpoint: mean survival time, dose: 6.25 mg/kg/injection, schedule: Q01DX009 (ip), vehicle: saline with Tween-80 103 % of control | [8] 115 % of control | [9] 122 % of control | [10] 89 % of control

CCCCCCCCCC(=O)CCCCCCC
inactive: endpoint: mean survival time, dose: 100.0 mg/kg/injection, schedule: Q04DX003 (ip), vehicle: other 105 % of control | endpoint: mean survival time, dose: 200.0 mg/kg/injection, schedule: Q04DX003 (ip), vehicle: other 92 % of control | endpoint: mean survival time, dose: 400.0 mg/kg/injection, schedule: Q04DX003 (ip), vehicle: other 107 % of control

COc1cc2ccc3cnccc3c2cc1OC
inactive: endpoint: mean survival time, dose: 12.5 mg/kg/injection, schedule: Q01DX009 (ip), vehicle: Klucel (hydroxypropylcellulose) (HPC) 100 % of control | endpoint: mean survival time, dose: 25.0 mg/kg/injection, schedule: Q01DX009 (ip), vehicle: Klucel (hydroxypropylcellulose) (HPC) 92 % of control | endpoint: mean survival time, dose: 50.0 mg/kg/injection, schedule: Q01DX009 (ip), vehicle: Klucel (hydroxypropylcellulose) (HPC) 94 % of control | endpoint: mean survival time, dose: 100.0 mg/kg/injection, schedule: Q01DX009 (ip), vehicle: Klucel (hydroxypropylcellulose) (HPC) 94 % of control | endpoint: mean survival time, dose: 200.0 mg/kg/injection, schedule: Q01DX009 (ip), vehicle: Klucel (hydroxypropylcellulose) (HPC) 100 % of control

CN1Cc2c([nH]c3ccccc23)C(O)C1 (configuration not stated)
inactive: endpoint: mean survival time, dose: 75.0 mg/kg/injection, schedule: Q01DX001 (ip), vehicle: saline 98 % of control | endpoint: mean survival time, dose: 150.0 mg/kg/injection, schedule: Q01DX001 (ip), vehicle: saline 106 % of control

COc1ccccc1NC(=S)NCCO
inactive: [5] 97 % of control | [6] 103 % of control | [7] 98 % of control

Clc1nnc(-c2ccccc2)c(-c2ccccc2)n1
inactive: [15] 91 % of control

Oc1ccccc1N=Cc1ccccc1
inactive: [15] 102 % of control | [16] 100 % of control | endpoint: mean survival time, dose: 400.0 mg/kg/injection, schedule: Q04DX003 (ip), vehicle: saline 101 % of control

[CH3][Sn]([CH3])([Br])[CH2]CCCBr
inactive: endpoint: mean survival time, dose: 0.39 mg/kg/injection, schedule: Q01DX009 (ip), vehicle: saline 90 % of control | endpoint: mean survival time, dose: 0.78 mg/kg/injection, schedule: Q01DX009 (ip), vehicle: saline 94 % of control | endpoint: mean survival time, dose: 1.56 mg/kg/injection, schedule: Q01DX009 (ip), vehicle: saline 92 % of control | endpoint: mean survival time, dose: 6.25 mg/kg/injection, schedule: Q01DX009 (ip), vehicle: saline 98 % of control | endpoint: mean survival time, dose: 12.5 mg/kg/injection, schedule: Q01DX009 (ip), vehicle: saline 91 % of control
